Measurements as given in patent publication US20250214990A1, “DIACYLGLYCEROL KINASE (DGK) ALPHA INHIBITORS AND USES THEREOF” (Insilico Medicine IP Limited, priority 2022, published 2025).
pEC50, pIC50: −log10 of the molar value.

Legend:
Human Pan T cells = experiment: IL-2 Release Detection Assay; format: cell-based; conditions: T-cell; for pEC50: IL-2 in supernatant by ELISA, anti-CD3 pre-coated plate, 24 hours; for maximal fold induction: Top activation/DMSO control; for activity at 0.1 µM: curve value at 100 nM/DMSO control*100%, read-out: Activation % at 100 nM
Method: Isolate Human Pan T cells from PBMC according to T cell isolation kit (Stemcell, 17951). The suspend T cell in RPMI 1640 medium containing 10% FBS, 1% PS and 55 µM β-Mer at a density of 3*10^6 cells/well/3 ml are seeded into 6 well plate, recovered overnight at 37° C.&[…]. Harvest overnight recovered T cells are suspended in fresh RPMI1640 medium containing 10% FBS, 1% PS and 55 μM f-Mer, seeded 1*10^5/well/200 μl cells into the anti-CD3 pre-coated 96 well plate. Add dilutions of compounds into the cells and incubate at 37° C.&5% CO2 for 24 hours. IL-2 in cell supernatant was detected by ELISA Kit (R&D, DY202). Fit the compound EC50 in non-linear regression equation: Y=Bottom+(Top−Bottom)/(1+10^((Log EC50−X)*HillSlope)), X=compound concentration, Y=Activation %. Top and Bottom: Plateaus in same units as Y. Log EC50: same log units as X. Activation fold: Top activation/DMSO control. Activation % at 100 nM: Activation of non-linear regression equation curve at the concentration of 100 nM/DMSO control*100%.

[1] = Mouse PK profile after oral administration; format: in vivo, Male CD-1 mice; conditions: for AUC(0-inf) / AUC(0-t) / Cmax / half-life: male, CD-1, plasma, mouse, oral, 5 mg/kg; for T1/2, Cmax and AUC compared with compound: mouse PK evaluation, comparison in words
Method: Species and strain: Male CD-1 mice of SPF. Source: Sino-British SIPPR/BK Lab Animal Ltd, Shanghai. 3 mice were orally gavage administrated with given compounds (Formulation: 5% DMSO+10% Solutol+85% Saline). The blood samples were taken via cephalic vein at timepoints 0.25 h, 0.5 h, 1 h, 2 h, 4 h, 6 h, 8 h and 24 h after oral gavage administration, 30 μL/time point. Blood samples were placed in tubes containing K2-EDTA and stored on ice until centrifuged. The blood samples were centrifuged at 6800 g for 6 minutes at 2-8° C. within 1 h after collected and stored frozen at approximately −80° C. An aliquot of 10 μL plasma samples were protein precipitated with 200 μL MeOH in which contains 10 ng/mL Verapamil (IS). The mixture was vortexed for 1 min and centrifuged at 18000 g for 7 min. Transfer 180 μL supernatant to 96 well plates. An aliquot of 6 μL supernatant was injected for LC-MS/MS analysis by LC-MS/MS-04 (API4000) instrument. The analytical results were confirmed using quality control samples for intra-assay variation. The accuracy of >66.7% of the quality control samples should be between 80-120% of the known value(s). Standard set of parameters including Area Under the Curve (AUC(0-t) and AUC(0-∞)), elimination half-live (T½), maximum plasma concentration (Cmax), will be calculated using noncompartmental analysis modules in FDA certified pharmacokinetic program Phoenix WinNonlin 7.0 (Pharsight, USA).

[2] = Rat PK profile after oral administration; format: in vivo, Male SD rats; conditions: for AUC(0-inf) / AUC(0-t) / Cmax / half-life: male, SD, plasma, rat, oral, 5 mg/kg; for T1/2, Cmax and AUC compared with compound: rat PK evaluation, comparison in words
Method: Species and strain: Male SD rats of SPF. Source: Sino-British SIPPR/BK Lab Animal Ltd, Shanghai. 3 rats were orally gavage administrated with given compounds (Formulation: 5% DMSO+10% Solutol+85% Saline). The blood samples were taken via submandibular vein or other suitable vein at timepoints 0.25 h, 0.5 h, 1 h, 2 h, 4 h, 6 h, 8 h and 24 h after oral gavage administration, 0.15 mL/time point. Blood samples were placed in tubes containing K2-EDTA and stored on ice until centrifuged. The blood samples were centrifuged at 6800 g for 6 minutes at 2-8° C. within 1 h after collected and stored frozen at approximately −80° C. An aliquot of 30 μL plasma samples were protein precipitated with 300 μL MeOH in which contains 100 ng/mL Verapamil (IS). The mixture was vortexed for 1 min and centrifuged at 18000 g for 7 min. Transfer 300 μL supernatant to 96 well plates. An aliquot of 8 μL supernatant was injected for LC-MS/MS analysis by LC-MS/MS-12 (TQ5500) instrument. The analytical results were confirmed using quality control samples for intra-assay variation. The accuracy of >66.7% of the quality control samples should be between 80-120% of the known value(s). Standard set of parameters including Area Under the Curve (AUC(0-t) and AUC(0-∞)), elimination half-live (T1/2), maximum plasma concentration (Cmax), will be calculated using noncompartmental analysis modules in FDA certified pharmacokinetic program Phoenix WinNonlin 7.0 (Pharsight, USA).

DGKA = biological target: T1, DGKA (Homo sapiens, UniProt P23743); experiment: DGKA Inhibition ADP-Glo Assay; format: biochemical; conditions: 40 μM ATP
T1 construct: purchased SignalChem D21-10BG
T1 sequence (P23743 whole entry): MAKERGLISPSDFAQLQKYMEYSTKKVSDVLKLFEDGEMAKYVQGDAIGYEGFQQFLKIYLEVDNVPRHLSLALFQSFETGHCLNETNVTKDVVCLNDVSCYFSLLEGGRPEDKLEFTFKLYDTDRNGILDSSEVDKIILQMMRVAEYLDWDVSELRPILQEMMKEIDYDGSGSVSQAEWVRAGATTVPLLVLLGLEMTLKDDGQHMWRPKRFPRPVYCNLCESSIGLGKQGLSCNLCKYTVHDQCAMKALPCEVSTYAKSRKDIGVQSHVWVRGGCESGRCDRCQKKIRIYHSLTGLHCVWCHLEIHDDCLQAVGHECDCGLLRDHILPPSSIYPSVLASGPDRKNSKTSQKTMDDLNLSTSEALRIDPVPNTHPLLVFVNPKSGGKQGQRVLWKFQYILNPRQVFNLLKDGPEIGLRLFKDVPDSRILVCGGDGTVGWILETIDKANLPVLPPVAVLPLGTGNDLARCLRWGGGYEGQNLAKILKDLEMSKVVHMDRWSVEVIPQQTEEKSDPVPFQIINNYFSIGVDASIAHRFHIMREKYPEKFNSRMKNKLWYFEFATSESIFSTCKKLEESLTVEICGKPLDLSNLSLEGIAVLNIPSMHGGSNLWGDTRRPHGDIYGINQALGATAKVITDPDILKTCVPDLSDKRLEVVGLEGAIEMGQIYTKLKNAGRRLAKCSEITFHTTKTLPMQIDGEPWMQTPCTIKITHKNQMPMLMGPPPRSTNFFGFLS
Method: The DGKA inhibition reactions were performed using ADP-Glo assay. The reactions were carried out in 50 mM HEPES, 100 mM NaCl, 10 mM MgCl2, 1 mM CaCl2, 0.005% TritonX-100 and 1 mM DTT as working solution (pH=7.5). 30 nL DMSO solution of each test compound (Top concentration […] with 10 point, 4-fold dilution series for each compound) were transferred to 384 well plate by Echo and 5 μL DGKA (SignalChem, D21-10BG) enzyme working solution at 2× final reaction concentration was added to each well. After incubated at 25° C. for 15 minutes, 5 μL substrate working solution contain 40 μM ATP (Promega, V915B) and 200 µM DLG (SignalChem, D430-59) were added to initiate reaction. After enzymatic reaction at 25° C. for 60 min, ADP Glo assay reagents (Promega, V9102) were added and luminescence was recorded using an EnVision following the instruction of manual. […] The IC50 value was calculated via a regression analysis of the inhibition rate.

Compound | pEC50 (Human Pan T cells) | maximal fold induction (Human Pan T cells) | activity at 0.1 µM (Human Pan T cells) | AUC(0-inf) [1] | AUC(0-t) [1] | Cmax [1] | half-life [1] | AUC(0-inf) [2] | AUC(0-t) [2] | Cmax [2] | half-life [2] | pIC50 (DGKA) | T1/2, Cmax and AUC compared with compound [1] | T1/2, Cmax and AUC compared with compound [2]
Cn1c(=O)nc(N2CCOCc3c(C#CC4(C(F)(F)F)CC4)cccc32)c2cc(Cl)ccc21 [Example 5, 6-chloro-1-methyl-4-(6-((1-(trifluoromethyl)cyclopropyl)ethynyl)-2,3-dihydrobenzo[e][1,4]oxazepin-1(5H)-yl)quinazolin-2(1H)-one] | 6.35 | 7.7 | 395% | 7110 ng·h/mL | 6660 ng·h/mL | 985 ng/mL | 2.03 h | 3760 ng·h/mL | 3470 ng·h/mL | 292 ng/mL | 6.32 h | > 9.00 | – | –
Cn1c(=O)nc(N2CCOCc3c(C#CC4CC4)cccc32)c2cc(Cl)c(OCCO)cc21 [Example 41, 6-chloro-4-(6-(cyclopropylethynyl)-2,3-dihydrobenzo[e][1,4]oxazepin-1(5H)-yl)-7-(2-hydroxyethoxy)-1-methylquinazolin-2(1H)-one] | 6.22 | 26.3 | 510% | 15500 ng·h/mL | 15300 ng·h/mL | 2230 ng/mL | 3.28 h | 12000 ng·h/mL | 10200 ng·h/mL | 724 ng/mL | 8.09 h | > 9.00 | longer T1/2, much higher Cmax and AUC | longer T1/2, much higher Cmax and AUC
Cn1c(=O)nc(N2CCOCc3c(C#CC4(C(F)(F)F)CC4)cccc32)c2cc(Cl)c(OCCO)cc21 [Example 13, 6-chloro-7-(2-hydroxyethoxy)-1-methyl-4-(6-((1-(trifluoromethyl)cyclopropyl)ethynyl)-2,3-dihydrobenzo[e][1,4]oxazepin-1(5H)-yl)quinazolin-2(1H)-one] | 6.88 | 22.5 | – | 28400 ng·h/mL | 26200 ng·h/mL | 2400 ng/mL | 6.13 h | – | 7520 ng·h/mL | 455 ng/mL | – | > 9.00 | longer T1/2, much higher Cmax and AUC | longer T1/2, much higher Cmax and AUC
